Key:
[1] = an = ratio of the nth substance listed; conditions: for surface tension liquid-gas: Ring tensiometer; for viscosity / mass density: 101 kPa, Liquid; for viscosity: Concentric cylinders viscometry; for mass density: Vibrating tube method
[2] = refractive index (Na D-line) (dimensionless); an = ratio of the nth substance listed; conditions: 101 kPa, Liquid, Standard Abbe refractometry

O=C(CO)[C@@H](O)[C@H](O)[C@H](O)CO [D-fructose] + C[N+](C)(C)CCO.[Cl-]
Conditions	mass density, [1] [kg/m3]	refractive index, [2]	surface tension liquid-gas, [1] [mN/m]	viscosity, [1] [mPa·s]
298.15 K, a2 = 1	1337	1.523	70.4	14347
298.15 K, a2 = 1.5	1303.6	1.521	73.6	12772
298.15 K, a2 = 2	1277.9	1.519	74	11733
298.15 K, a2 = 2.5	1259	1.522	75	17646
308.15 K, a2 = 1	1331.6	1.521	68	7722.9
308.15 K, a2 = 1.5	1298.2	1.519	71.7	7126.1
308.15 K, a2 = 2	1272.5	1.518	72	6137.1
308.15 K, a2 = 2.5	1253.7	1.52	73	8556.6
318.15 K, a2 = 1	1326.2	1.52	66	4050.5
318.15 K, a2 = 1.5	1292.7	1.517	69.5	3071
318.15 K, a2 = 2	1266.9	1.515	70	2457
318.15 K, a2 = 2.5	1248.5	1.517	71	4461.7
328.15 K, a2 = 1	1320.7	1.518	64.4	1415.9
328.15 K, a2 = 1.5	1287.3	1.515	67.3	1271.1
328.15 K, a2 = 2	1261.2	1.514	68	1261.7
328.15 K, a2 = 2.5	1243.3	1.516	69	1267.5
338.15 K, a2 = 1	1315.2	1.515	62.6	806.5
338.15 K, a2 = 1.5	1281.8	1.512	65.6	698.4
338.15 K, a2 = 2	1255.5	1.511	66	570.7
338.15 K, a2 = 2.5	1237.9	1.514	67	615.4
348.15 K, a2 = 1	1309.3	1.513	61	459.7
348.15 K, a2 = 1.5	1275.9	1.511	63	353.1
348.15 K, a2 = 2	1249.7	1.509	64	285.3
348.15 K, a2 = 2.5	1232.4	1.512	65	325.5
358.15 K, a2 = 1	1303.1	1.512	59	280.6
358.15 K, a2 = 1.5	1269.7	1.509	61.3	236.1
358.15 K, a2 = 2	1241.9	1.507	62	129.3
358.15 K, a2 = 2.5	1226.9	1.51	63	182.6
